For test [1], the system named is HeLa Tet-On cells. In words: mitotic index by flow cytometry, Bub1-depleted cells. Format: cell-based, human. To be noted: partial Bub1 depletion, BI 2536 1 µM, nocodazole; n = 3; as shown previously (Jia et al., 2016). The procedure:
HeLa Tet-On cells were initially purchased from Clontech (Mountain View, CA), and were cultured in Dulbecco’s Modified Eagle Medium (DMEM, Invitrogen, Carlsbad, CA) supplemented with 10% fetal bovine serum and 2 mM L-glutamine. The cells were authenticated by genome sequencing and metaphase chromosome spread, and were routinely checked by 4',6-diamidino-2-phenylindole (DAPI) staining to ascertain that they were free of mycoplasma contamination. For G1/S synchronization, cells were treated with 2 mM thymidine (Sigma, St. Louis, MO) for 14–16 hr. For mitotic arrest, cells were treated with 330 nM or 1 µM nocodazole (Sigma) or 100 nM taxol (Sigma) for 12–14 hr. Other chemicals used in this study were: RO3306 (Sigma) at 20 µM, BI 2536 (Selleck Chemicals, Houston, TX) at 1 µM, MG132 (Selleck Chemicals) at 10 µM, okadaic acid (LC lab, Woburn, MA) at 500 nM, and reversine (Cayman Chemical, Ann Arbor, MI) at 1 µM.
For RNAi experiments, cells were transfected with siRNA oligonucleotides (Dharmacon, Lafayette, CO) using Lipofectamine RNAiMAX (Invitrogen) and harvested at 24–72 hr after transfection. The sequences of the siRNAs were (from 5’ to 3’): siBub1-c, […] […]
Cells were synchronized at G1/S with thymidine and released into fresh medium containing 330 nM nocodazole for 13 hr before being harvested. […] The samples were analyzed on a FACSCalibur flow cytometer (BD Biosciences). […]
(A flow cytometer gives signals particle by particle.)

Test [2] has as its target T1, C-terminal domain (CTD) of scMad1 (Saccharomyces cerevisiae, UniProt P40957).
T1 sequence (P40957 633-749 limits assumed): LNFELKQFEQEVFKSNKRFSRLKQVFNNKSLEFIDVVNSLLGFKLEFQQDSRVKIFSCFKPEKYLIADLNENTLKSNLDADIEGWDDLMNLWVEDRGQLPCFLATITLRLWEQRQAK
In words: ITC, scBub1 fragment or phospho-peptides with scMad1 CTD. To be noted: 20°C, 25 mM HEPES pH 7.5, 150 mM NaCl, scMad1 20 µM in cell, scBub1 phospho-peptide or fragment 300 µM injected, read-out: Kd, dissociation constant. The class given is binding. The procedure:
All isothermal titration calorimetry (ITC) assays were performed with a MicroCal Omega ITC200 titration calorimeter (GE Life Sciences) at 20°C. Recombinant scMad1^CTD protein or scMad1–scMad2 complexes were dialyzed into the HEPES Buffer I (25 mM HEPES, pH 7.5, 150 mM NaCl). Recombinant human Mad1^CTD protein was dialyzed into the HEPES Buffer II (25 mM HEPES, pH 7.5, 50 mM NaCl). For each titration, 300 μl of scMad1 proteins (20 µM) or human Mad1 (50 µM) were added to the calorimeter cell. The scBub1 phospho-peptides or purified scMps1-phosphorylated scBub1_449–530 fragment (300 µM) in the HEPES Buffer I or the human Bub1 phospho-peptides (500 µM) in the HEPES Buffer II were injected with an injection syringe in 19 2-μl portions. The raw data were processed and fitted with the NITPIC software package ([Keller et al., 2012]).
In general terms: In ITC the heat of successive injections is recorded.

The subject of test [3] is Bub1^ΔK–Bub3. In words: in vitro kinase assay on recombinant Bub1^ΔK–Bub3. The class given is biochemical, human. To be noted: 400 nM Bub1^ΔK–Bub3, 50 nM Cdk1–Cyclin B1 or 500 nM Mps1, 1 mM ATP, room temperature, 30 min; blot. The procedure:
For kinase assays, 1 μM Cdc20^ΔN60, 40 μM Mad1^E–Mad2, or 400 nM Bub1^ΔK–Bub3 was incubated with 40 nM Bub1, 500 nM Mps1, and/or 50 nM Cdk1–Cyclin B1 at room temperature for 30 min in the kinase buffer (25 mM Tris-HCl, pH 7.7, 100 mM NaCl, 10 mM MgCl2, 5 mM NaF, 20 mM β-glycerophosphate, 0.1 mM Na3VO4 and 1 mM DTT) supplemented with 1 mM ATP. The reaction mixtures were stopped with the appropriate kinase inhibitors for further protein-binding assays, or quenched with the SDS loading buffer and analyzed by Coomassie blue staining or Western blotting.

Test [4] concerns APC/C^Cdc20. In words: APC/C^Cdc20 inhibition by MCC components (securin ubiquitination assay). Format: biochemical, Xenopus APC/C, human Cdc20. To be noted: BubR1^N and Cdc20^ΔN60, no Bub1^ΔK–Bub3, Mad1^E–Mad2, Cdk1 or Mps1.
The subject of test [5] is HeLa cells. In words: mitotic arrest by Mis12–Mad1 fusion proteins (mitotic index). Format: cell-based, human. To be noted: no spindle poison. The procedure: Internal deletion mutants were constructed with overlapping extension polymerase chain reaction (PCR). Point mutations were introduced with QuikChange Lightening Site-Directed Mutagenesis kit (Agilent Technologies, Santa Clara, CA). All plasmids were verified by sequencing. Plasmid transfection was performed with the Effectene reagent (Qiagen, German Town, MD) according to the manufacturer’s instructions.
[…] For Plk1 inhibition, BI 2536 was added 1 hr prior to harvest. Collected cells were washed with PBS and fixed with pre-chilled 70% ethanol at −20°C overnight. After being washed with PBS, the fixed cells were permeabilized with 0.2% Triton X-100 in PBS for 20 min. Cells were then incubated with the anti-MPM2 antibody (1:100, Millipore) in PBS containing 1% BSA for 2 hr. After being washed with PBS, cells were incubated with fluorescent secondary antibodies (Invitrogen) in PBS containing 1% BSA for 30 min. After being washed with PBS, cells were stained with 20 μg/ml propidium iodide (Sigma) in PBS containing 200 μg/ml RNase (Qiagen). All staining steps were performed at room temperature. The samples were analyzed on a FACSCalibur flow cytometer (BD Biosciences). Data were processed with the FlowJo software. The mitotic index was defined as the percentage of cells that had 4N DNA content and were also positive for MPM2 staining. […]

For test [6], the system named is human Mad1 CTD. In words: in vitro pull-down of human Mad1^CTD by Bub1 peptide beads. Format: binding. To be noted: peptides immobilized on SulfoLink resin, Coomassie. The procedure:
Recombinant bait proteins or bacteria lysates containing bait proteins were incubated with the appropriate affinity beads. Bait-bound beads were then blocked with 2% fat-free milk when necessary before being mixed with 100 µl diluted prey proteins. After incubation, beads were washed and eluted with the SDS loading buffer. The bead-bound proteins were analyzed by Coomassie blue staining or Western blotting. […] In cases that synthesized peptides were used as bait, peptides were immobilized on SulfoLink resin (Thermo Scientific, Waltham, MA) according to the manufacturer’s instructions. The synthetic scBub1 peptides contained residues 449–473 of scBub1, various phospho-residues, and a cysteine at the N-terminus. All synthetic human Bub1 peptides, except the pS459 peptide, contained residue 455–477 of human Bub1, the appropriate phospho-residues, and a cysteine at the N-terminus. The Bub1 pS459 peptide contained residues 439–480, pT452/pS459, and a cysteine at the C-terminus.

Here are results for 8 molecules from paper PMC5268738, “A sequential multi-target Mps1 phosphorylation cascade promotes spindle checkpoint signaling” (eLife, 2017).

Square brackets hold non-standard residues; d marks the D form. Ends that are not written are not given here. Peptide text beside a SMILES is read from it. pT = C[C@@H](OP(=O)(O)O)[C@H](N)C(=O)O; pS = N[C@@H](COP(=O)(O)O)C(=O)O

For orientation: Kd means the equilibrium constant for the complex coming apart.

Take `CC[C@@H]1C(=O)N(C)c2cnc(Nc3ccc(C(=O)NC4CCN(C)CC4)cc3OC)nc2N1C1CCCC1` [BI 2536, reference compound]: the “effect of Plk1 inhibition with partial depletion of Bub1 on the spindle checkpoint (in words)” value in test [1] was “synergistically inactivated the spindle checkpoint and reduced nocodazole-triggered mitotic arrest”.

Consider `CC[C@H](C)[C@H](NC(=O)[C@H](C)NC(=O)[C@H](CC(=O)O)NC(=O)[C@H](CCCCN)NC(=O)[C@H](CO)NC(=O)[C@H](Cc1ccccc1)NC(=O)[C@H](C)NC(=O)[C@@H](NC(=O)[C@@H](NC(=O)[C@@H](NC(=O)[C@@H]1CCCN1C(=O)[C@H](CO)NC(=O)[C@H](CCCNC(=N)N)NC(=O)[C@H](CO)NC(=O)[C@@H](N)CS)[C@@H](C)OP(=O)(O)O)C(C)C)[C@@H](C)OP(=O)(O)O)C(=O)N[C@@H](CC(N)=O)C(=O)N[C@@H](CCC(=O)O)C(=O)N[C@H](C(=O)N[C@@H](Cc1ccccc1)C(=O)N[C@@H](CO)C(=O)N[C@@H](CCSC)C(=O)N[C@@H](Cc1ccccc1)C(=O)N[C@@H](CC(N)=O)C(=O)N[C@@H](CCC(N)=O)C(=O)N[C@@H](Cc1c[nH]cn1)C(=O)N[C@@H](Cc1ccc(O)cc1)C(=O)O)C(C)C` [scBub1 pT453-pT455 peptide] (H-CSRSP[pT]V[pT]AFSKDAINEVFSMFNQHY-OH), for which, in test [2], the Kd turned out to be 1600 nM.

In the case of `CC[C@H](C)[C@H](NC(=O)[C@H](C)NC(=O)[C@H](CC(=O)O)NC(=O)[C@H](CCCCN)NC(=O)[C@H](CO)NC(=O)[C@H](Cc1ccccc1)NC(=O)[C@H](C)NC(=O)[C@@H](NC(=O)[C@@H](NC(=O)[C@@H](NC(=O)[C@@H]1CCCN1C(=O)[C@H](CO)NC(=O)[C@H](CCCNC(=N)N)NC(=O)[C@H](CO)NC(=O)[C@@H](N)CS)[C@@H](C)O)C(C)C)[C@@H](C)OP(=O)(O)O)C(=O)N[C@@H](CC(N)=O)C(=O)N[C@@H](CCC(=O)O)C(=O)N[C@H](C(=O)N[C@@H](Cc1ccccc1)C(=O)N[C@@H](CO)C(=O)N[C@@H](CCSC)C(=O)N[C@@H](Cc1ccccc1)C(=O)N[C@@H](CC(N)=O)C(=O)N[C@@H](CCC(N)=O)C(=O)N[C@@H](Cc1c[nH]cn1)C(=O)N[C@@H](Cc1ccc(O)cc1)C(=O)O)C(C)C` [scBub1 pT455 peptide] (H-CSRSPTV[pT]AFSKDAINEVFSMFNQHY-OH), the Kd in test [2] was determined as 1600 nM.

In the case of “Cdk1: recombinant GST-Cdk1 (T14A/Y15F) co-expressed with His6-Cyclin B1 [reference compound]”, the “phosphorylation of Bub1^ΔK–Bub3 at S459 (in words)” value in test [3] was “strongly phosphorylated at S459”.

On to “Mad2^Di: dimeric Mad2 separated by ion exchange chromatography”, for which, in test [4], the “spontaneous functional MCC formation and APC/C^Cdc20 inhibition (in words)” value is on record as “allowed the spontaneous formation of functional MCC that inhibited securin ubiquitination by APC/C^Cdc20”.

For “Mad2^Mono: monomeric Mad2, mostly the inactive O-Mad2”, the “spontaneous functional MCC formation and APC/C^Cdc20 inhibition (in words)” value in test [4] was “only showed weak APC/C^Cdc20 inhibition at very high doses”.

In the case of T716A: Mis12–Mad1 with T716A mutation, in test [5], the “mitotic arrest by Mis12–Mad1 fusion protein (in words)” value is recorded as “abrogated the function of Mis12–Mad1 more strongly than simultaneously mutating the 13 sites outside of the CTD”.

Consider “pS459-pT461-pT464 peptide: triply phosphorylated synthetic human Bub1 peptide, residues 455–477, N-terminal cysteine (CKVQP[pS]P[pT]VH[pT]KEALGFIMNMFQA; UniProt O43683 455-477, looked up, fragment)”, for which the “binding to human Mad1 CTD (in words)” value in test [6] was “bound more weakly to Mad1 than the pS459-pT461 peptide”.
